In the supplement of paper PMC10307832:

Legend:
Test in all cases: relative viability (nuclei count vs DMSO), 5 days (fraction); higher = more cells survive
Carboplatin + Pictilisib = compound: C1CC(C1)(C(=O)O)C(=O)O.[NH2-].[NH2-].[Pt+2] [Carboplatin] + CS(=O)(=O)N1CCN(Cc2cc3nc(-c4cccc5[nH]ncc45)nc(N4CCOCC4)c3s2)CC1 [Pictilisib] (partner 1 µM)
Procedure, shortened: (§1)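 Dosing by pin tool came one day after lung cancer cell lines were seeded in 1536-well plates, using either one drug or a fixed anchor-drug dose plus five library-drug doses (not always all listed) in √10 steps. After 5 days, nuclei were counted on 4× images. Relative viability is treated-well nuclei count divided by vehicle-well nuclei count, and values are medians of duplicate plates.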

[1] = compound: C1CC(C1)(C(=O)O)C(=O)O.[NH2-].[NH2-].[Pt+2] [Carboplatin] + CC(=O)c1c(C)c2cnc(Nc3ccc(N4CCNCC4)cn3)nc2n(C2CCCC2)c1=O [Palbociclib] (partner 0.5 µM)
Procedure, shortened: as §1

GSK126 + Lapatinib = compound: CC[C@H](C)N1C=C(C2=C(C=C(C=C21)C3=CN=C(C=C3)N4CCNCC4)C(=O)NCC5=C(C=C(NC5=O)C)C)C [GSK126] + CS(=O)(=O)CCNCc1ccc(-c2ccc3ncnc(Nc4ccc(OCc5cccc(F)c5)c(Cl)c4)c3c2)o1 [Lapatinib] (partner 2 µM)
Procedure, shortened: as §1

GSK126 + Olaparib = compound: CC[C@H](C)N1C=C(C2=C(C=C(C=C21)C3=CN=C(C=C3)N4CCNCC4)C(=O)NCC5=C(C=C(NC5=O)C)C)C [GSK126] + O=C(c1cc(Cc2n[nH]c(=O)c3ccccc23)ccc1F)N1CCN(C(=O)C2CC2)CC1 [Olaparib] (partner 8 µM)
Procedure, shortened: as §1

| Cell Line | relative viability (Carboplatin + Pictilisib; first compound 0.08 µM) | relative viability (Carboplatin + Pictilisib; first compound 0.253 µM) | relative viability (Carboplatin + Pictilisib; first compound 0.8 µM) | relative viability (Carboplatin + Pictilisib; first compound 2.53 µM) | relative viability (Carboplatin + Pictilisib; first compound 8 µM) | relative viability ([1]; first compound 0.08 µM) | relative viability ([1]; first compound 0.253 µM) | relative viability ([1]; first compound 0.8 µM) | relative viability ([1]; first compound 2.53 µM) | relative viability ([1]; first compound 8 µM) | relative viability (GSK126 + Lapatinib; first compound 0.08 µM) | relative viability (GSK126 + Lapatinib; first compound 0.253 µM) | relative viability (GSK126 + Lapatinib; first compound 0.8 µM) | relative viability (GSK126 + Lapatinib; first compound 2.53 µM) | relative viability (GSK126 + Lapatinib; first compound 8 µM) | relative viability (GSK126 + Olaparib; first compound 0.08 µM) | relative viability (GSK126 + Olaparib; first compound 0.253 µM) | relative viability (GSK126 + Olaparib; first compound 0.8 µM) | relative viability (GSK126 + Olaparib; first compound 2.53 µM) | relative viability (GSK126 + Olaparib; first compound 8 µM) |
| --- | --- | --- | --- | --- | --- | --- | --- | --- | --- | --- | --- | --- | --- | --- | --- | --- | --- | --- | --- | --- |
| H3255 | 0.54 | 0.504 | 0.375 | 0.407 | 0.425 | 0.303 | 0.303 | 0.308 | 0.275 | 0.306 | 0.24 | 0.243 | 0.302 | 0.272 | 0.269 | 0.571 | 0.553 | 0.517 | 0.582 | 0.57 |
| A-427 | 0.773 | 0.768 | 0.629 | 0.694 | 0.732 | 0.585 | 0.509 | 0.542 | 0.484 | 0.488 | 1.14 | 1.1 | 1.05 | 1.07 | 0.962 | 0.704 | 0.724 | 0.701 | 0.765 | 0.837 |
| NCI-H661 | 0.431 | 0.393 | 0.368 | 0.34 | 0.402 | 0.385 | 0.428 | 0.399 | 0.416 | 0.374 | 0.417 | 0.574 | 0.441 | 0.572 | 0.361 | 0.706 | 0.74 | 0.722 | 0.689 | 0.705 |
| NCI-H1993 | 0.805 | 0.891 | 0.745 | 0.869 | 0.811 | 0.596 | 0.781 | 0.634 | 0.627 | 0.534 | 0.884 | 0.737 | 0.753 | 0.821 | 0.712 | 1.21 | 1.02 | 1 | 1.06 | 0.893 |
| NCI-H1563 | 0.733 | 0.664 | 0.639 | 0.629 | 0.657 | – | – | – | – | – | 1.1 | 1.04 | 0.957 | 0.999 | 0.869 | – | – | – | – | – |
| NCI-H1703 | 0.261 | 0.229 | 0.231 | 0.251 | 0.245 | – | – | – | – | – | 1.08 | 1.14 | 0.917 | 1.23 | 1.09 | 0.576 | 0.351 | 0.694 | 0.455 | 0.492 |
| NCI-H1648 | – | – | – | – | – | 0.239 | 0.291 | 0.264 | 0.302 | 0.3 | – | – | – | – | – | 1.01 | 1.22 | 0.774 | 1.1 | 0.908 |
| NCI-H441 | 0.56 | 0.588 | 0.414 | 0.492 | 0.433 | 0.282 | 0.226 | 0.212 | 0.211 | 0.231 | – | – | – | – | – | 0.612 | 0.561 | 0.566 | 0.539 | 0.44 |
| IA-LM | 0.404 | 0.373 | 0.353 | 0.261 | 0.242 | – | – | – | – | – | 1 | 0.717 | 0.708 | 0.762 | 0.892 | 1.03 | 0.832 | 0.99 | 0.759 | 0.75 |
| SW 900 | – | – | – | – | – | 0.548 | 0.622 | 0.572 | 0.393 | 0.505 | – | – | – | – | – | 0.909 | 0.751 | 0.866 | 0.885 | 0.888 |
| A549 | 0.579 | 0.51 | 0.527 | 0.459 | 0.125 | – | – | – | – | – | 1.06 | 1.08 | 0.946 | 0.932 | 0.934 | 0.361 | 0.297 | 0.336 | 0.333 | 0.368 |
| NCI-H1299 | 0.785 | 0.663 | 0.62 | 0.739 | 0.617 | – | – | – | – | – | 0.968 | 0.997 | 0.952 | 0.931 | 0.929 | 1 | 0.93 | 0.922 | 0.921 | 0.976 |
| NCI-H2342 | – | – | – | – | – | 0.514 | 0.483 | 0.482 | 0.531 | 0.526 | – | – | – | – | – | 0.447 | 0.501 | 0.392 | 0.424 | 0.469 |
| NCI-H522 | – | – | – | – | – | 0.897 | 1.35 | 1 | 0.965 | 0.825 | – | – | – | – | – | 0.61 | 0.599 | 0.639 | 0.611 | 0.699 |
| ChaGo-K-1 | 1.01 | 0.713 | 0.615 | 0.463 | 0.376 | 0.913 | 0.937 | 0.837 | 0.749 | 0.535 | – | – | – | – | – | 0.419 | 0.419 | 0.432 | 0.5 | 0.431 |
| EBC-1 | 0.392 | 0.344 | 0.363 | 0.365 | 0.358 | – | – | – | – | – | 0.232 | 0.188 | 0.178 | 0.21 | 0.202 | 0.743 | 0.711 | 0.702 | 0.684 | 0.615 |
| Calu-6 | 0.914 | 0.906 | 0.823 | 0.739 | 0.486 | – | – | – | – | – | 1.1 | 1.14 | 1.07 | 1.11 | 1.03 | 0.604 | 0.664 | – | 0.612 | 0.577 |
| NCI-H596 | 0.455 | 0.36 | 0.389 | 0.333 | 0.373 | – | – | – | – | – | 1.11 | 0.932 | 0.951 | 1.11 | 1.08 | 0.713 | 0.703 | 0.702 | 0.847 | 0.758 |
